{
  "source": "patent US9598410B2",
  "about": "“Substituted 4,5,6,7-tetrahydro-1H-pyrazolo[4,3-C]pyridines, their use as medicament, and pharmaceutical preparations comprising them” (SANOFI, priority 2011, dated 2017)",
  "target": "Human TASK-1 channels (Homo sapiens (Human), UniProt O14649)",
  "sequence (O14649 whole entry, the tested form may be a part)": "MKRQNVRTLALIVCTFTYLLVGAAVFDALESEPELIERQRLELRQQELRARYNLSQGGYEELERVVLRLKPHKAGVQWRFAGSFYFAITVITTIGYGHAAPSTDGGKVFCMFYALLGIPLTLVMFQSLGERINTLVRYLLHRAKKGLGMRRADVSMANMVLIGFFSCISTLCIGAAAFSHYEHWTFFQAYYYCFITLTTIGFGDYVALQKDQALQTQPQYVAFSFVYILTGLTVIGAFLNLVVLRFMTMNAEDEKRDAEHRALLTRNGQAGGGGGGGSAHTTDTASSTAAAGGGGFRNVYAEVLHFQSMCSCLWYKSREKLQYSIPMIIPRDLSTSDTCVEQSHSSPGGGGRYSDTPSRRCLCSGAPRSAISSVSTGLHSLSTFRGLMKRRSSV",
  "assay": "Activity on the TASK-1 channel in Xenopus oocytes (two-microelectrode voltage clamp)",
  "type": "cell-based",
  "conditions": "percentage inhibition of TASK-1 control current",
  "experimental": "Human TASK-1 channels were expressed in Xenopus oocytes. […] Subsequently, TASK-1-encoding RNA synthesized in vitro was injected into oocytes. […] Oocytes were continuously superfused with ND96 buffer containing: NaCl 96 mM, KCl 2 mM, CaCl2 1.8 mM, MgCl2 1 mM, HEPES 5 mM (pH adjusted to 7.4 with NaOH). All experiments were performed at room temperature.\nIC50 values were obtained by fitting the data to the general dose-response equation.",
  "data": [
    {"smiles": "COc1ccnc(Cn2nc(-c3cccc(C(F)(F)F)c3)c3c2CCN(C(C)=O)C3)c1", "note": "[Example 6q, 1-[1-(4-Methoxy-pyridin-2-ylmethyl)-3-(3-trifluoromethyl-phenyl)-1,4,6,7-tetrahydro-pyrazolo[4,3-c]pyridin-5-yl]-ethanone]", "values": [
      {"measurement": "Inhibition (%) at 5 μM", "value": 70, "unit": "%"}
    ]}
  ]
}
